# Measurements published in patent publication US11723894B2, “Combination product for the treatment of neurological and/or psychiatric disorders” (Consejo Superior de Investigaciones Cientificas (CSIC), priority 2017, dated 2023).
# Test system: hippocampal subgranular neurogenic niche
# Assay: Short-term (4 days) in vivo activation of the hippocampal subgranular neurogenic niche (BrdU)
# Set-up: species or system C57BL/6 mice
# Conditions: DMT 0.1 μg/animal, lateral ventricle, sacrificed day 5
# Procedure: Adult male C57BL/6 mice (obtained from Charles River Labs) were injected in the lateral ventricle (coordinates: from bregma, posterior −1 mm, lateral +1.3 mm, ventral +2 mm, according to the atlas of Paxinos and Franklin (Paxinos G, Franklin KBJ. The Mouse Brain in Stereotaxic Coordinates. 4. San Diego: Academic Press; 2012)), using a stereotaxic apparatus (Kopf Instruments, CA) with DMT (0.1 μg/animal), alone or in combination with the selective Sigma-1 BD1063 (BD, 0.2 μg/animal, Sigma, catalog number SML0276), the mixed 5-HT2A/1A receptor antagonist methiothepin (Met, 0.2 μg/animal, Sigma catalog number M149), or the selective 5-HT1A receptor antagonist WAY100635 (WAY, 0.2 μg/animal, ABCAM catalog number ab120550). Prior to the injection, mice were anesthetized by intraperitoneal injection of ketamine (60 mg/kg) and medetomidine (0.125 mg/kg). […] The boundaries of these nervous system regions were determined with reference to internal anatomic landmarks (Paxinos G, Franklin KBJ. The Mouse Brain in Stereotaxic Coordinates. 4. San Diego: Academic Press; 2012). For DG area selection, images were analyzed using computer-assisted image analysis software (Soft Imaging System Corporation, Lakewood, Colo., http://www.soft-imaging.com). Positive cells, which intersected the uppermost focal plane (exclusion plane) and the lateral exclusion boundaries of the counting frames, were not counted. […]
smiles,measurement,value
"CN(C)CCc1c[nH]c2ccccc12 [DMT, N,N-dimethyltryptamine]",BrdU staining (proliferation) in the hippocampus,increases
